Data: patent publication US11834663B2, “Fibrotic treatment” (Monash University, priority 2015, dated 2023)

Columns and labels:
[1] = tested on: hearts of aged (18-22 month old) WT mice; test: Reversal of age-induced cardiac fibrosis and inflammation in aged WT mice (histology, immunofluorescence, western blot); assay type: in vivo, mouse
Protocol: (§1) There are 8 different sets of in vivo experiments in this study: • A) Phenotypic characterisation of the heart and blood vessels in global IRAP knockout mice and their WT controls treated for 4 weeks with Angiotensin (Ang) II (800 ng/kg/min; s.c.) where mouse hearts and blood vessels were compared to tissue obtained from young WT and IRAP^−/− mice treated with saline. • B) Prevention of Ang II-induced changes in the cardiovascular system following IRAP inhibitor treatment. In the prevention model, WT mice were treated with Ang II (800 ng/kg/min; s.c.)±the IRAP inhibitor (HFI-419; 500 ng/kg/min for 28 days) or HFI-vehicle (1 DMSO:3 HBC). • C) Phenotypic characterisation of the aged heart, kidney and blood vessels in the global IRAP knockout mice where aged WT and IRAP^−/− mouse hearts, kidneys and blood vessels were compared to tissue obtained from young WT and IRAP^−/− mice. • D) Reversal of the age-induced changes in the cardiovascular system following IRAP inhibitor treatment. In the reversal model, aged WT mice were treated with either saline, IRAP inhibitor (HFI-419 at 500 ng/kg/min; compound 1 at 500 ng/kg/min; compound 2 at 50 ng/kg/min) or HFI-vehicle (1 DMSO: 3 HBC) for 4 weeks. • E) Prevention of ischemic-reperfusion injury in isolated hearts taken from aged global IRAP knockout mice and aged IRAP inhibitor (HFI-419 at 500 ng/kg/min; s.c.) treated WT mice compared to age-matched vehicle-treated (1 DMSO:3 HBC; s.c.) WT controls. • F) Phenotypic characterization of cardiac function using echocardiography in the aged global IRAP knockout mice compared to aged and young WT mice. • G) Phenotypic characterization of liver steatosis in IRAP knockout mice in a high fat diet (HFD) model. • H) Reversal of the salt-induced fibrosis in the liver following IRAP inhibitor treatment.
All mice which underwent surgery were anaesthetized with Isoflurane (Isorrane) (5% induction and 2.5% maintenance) and an incision made in the midscapular region through which osmotic minipumps (Alzet model 2004, Alza Corp) were inserted for subcutaneous drug administration. The incision area was sutured with 6/0 DY silk (Dynek Pty Ltd) and antibiotic powder applied (Cicatrin, Pfizer) followed by intramuscular injection of the analgesic Cartrophen (0.1 ml of a 1.5 mg/ml stock solution; Biopharm Australia). Systolic blood pressure (SBP) was measured fortnightly using non-invasive tail-cuff plethysmography apparatus (MC4000 Blood Pressure Analysis System, Hatteras Instrument Inc) before drug treatment (week 0), at week 2 of treatment and end of treatment (week 4). At the end of drug treatment, body weight of mice was recorded. Mice were anaesthetized using Isoflurane inhalation and killed by cervical dislocation. Organs (heart, aorta, kidneys, brain, blood and tibia) were collected, with heart and aorta being dissected appropriately as described below. All organs were then snap frozen in liquid nitrogen, and stored at −80° C. if they were not used for vascular reactivity studies conducted on the day mice were killed.
To measure collagen deposition, frozen sections of heart, kidney or aorta (all 5 μm thickness) were air dried for 10 minutes and were brought through 3 times xylene (2 minutes each), and 3 times absolute alcohol washes before being rinsed in tap H2O for 30 seconds. Staining with an optimal concentration of picrosirius red (in this instance 0.05% picrosirius red diluted in saturated picric acid) was performed and left for an hour. Sections were then rinsed in water and differentiated in 0.01 M HCl for 2 minutes, followed by dehydration via 3 times absolute alcohol washes. Then, slides were brought through 3 times xylene washes before being cover slipped according to standard histological techniques using DPX as the mounting medium. […]

[2] = tested on: isolated hearts from aged WT mice; test: Ischemic-reperfusion injury in isolated Langendorff hearts from chronically treated aged WT mice; assay type: in vivo, mouse
Protocol: as §1
Mice were injected with heparin (500 IU) 20 min before death by cervical dislocation. The heart was rapidly excised and immersed in ice-cold physiological saline solution (PSS). Under a dissecting microscope, the heart and aortic arch were cleared of loose tissue, the pulmonary vein perforated to permit free perfusion of the heart and the heart was mounted on a Langendorff apparatus (ML870B2, ADInstruments, Bella Vista, NSW, Australia) via a 20 gauge needle. The heart was continuously perfused with pre-warmed PSS containing (mM): NaCl 118; KCl 4.7; NaHCO3 25; glucose 11; KH2PO4 1.2; MgSO4 1.2; CaCl2) 1.2 mM and gassed with O2 95% and CO2 5% (carbogen) at 37° C. Prior to use, the PSS was filtered through a 0.22 μm cellulose acetate filter (Millipore). The heart perfusion chamber was surrounded by thermostatically controlled water jacket system that maintained the temperature at 37° C. A fine, 200 μm cannula was present in the PSS line for drug delivery (1:10 drug dilution and with a time lag of 1 min to the heart). A Millar pressure cathether (Millar instruments Inc.) was introduced into the left ventricle via a puncture at the junction of the left atrium and ventricle, and connected to a Power lab system (ADInstruments). […] Left ventricular developed pressure (LVDP); end diastolic pressure (EDP), heart rate (HR), left ventricular contractility (+dP/dt) and left ventricular relaxation (−dP/dt) and coronary flow were recorded continuously.
Ischemia was induced by halting perfusion of the heart for 40 min. […] Left ventricular developed pressure (LVDP), end diastolic pressure (EDP) and contractility (±dP/dt) were recorded during the 60 min. […]

[3] = aged WT mice, HFI-419 4 weeks, FIG. 13
[4] = aged WT mice, HFI-419 4 weeks, FIG. 17
[5] = aged WT mice, HFI-419 4 weeks, FIG. 18

## CCOC(=O)C1=C(NC(C)=O)Oc2cc(O)ccc2C1c1cccnc1 (centres unmarked) [HFI-419]
[1]; [3]
  ICAM-1 expression in heart: reduced
  MCP-1 expression in heart: reduced
  NFκB activation in heart (phospho-IκBα): diminished
  macrophage expression in heart: reduced
  superoxide production in heart (DHE): diminished
[1]; [4]
  MMP-2 protein level in heart: no change
  MMP-8 protein expression in heart: trend towards increased
  MMP-9 protein level in heart: no change
  MMP-13 protein level in heart: no change
  TIMP-1 protein levels in heart: significantly decreased
  precursor and mature forms of collagen α1 Type I in heart (western blot): markedly reduced
[1]; [5]
  TGF-β1 expression in heart: downregulation
  synthetic myofibroblasts (α-SMA) in heart: downregulation
[1]; ~20 month old WT mice, HFI-419 500 ng/kg/min s.c., 4 weeks, FIG. 8c
  IRAP expression in heart: significantly decreased
[1]; ~20 month old WT mice, HFI-419 500 ng/kg/min s.c., 4 weeks, FIGS. 15, 16
  age-induced cardiac collagen deposition (picrosirius red): reversed age-induced collagen deposition to the same level seen in young adult mice
[2]; 40 min ischemia / 60 min reperfusion, aged WT mice treated with HFI-419 for 4 weeks, FIG. 20a
  reduction in infarct area compared to the aged WT control: ~50%
[2]; aged WT mice, HFI-419 4 weeks
  recovery of LVDP in the first 10 minutes of reperfusion: did not affect
[2]; evident from 20 min of reperfusion, aged WT mice, HFI-419 4 weeks, FIG. 20b
  recovery of LVDP in latter stages of reperfusion: significant improvement
[2]; evident from 20 min of reperfusion, aged WT mice, HFI-419 4 weeks, FIG. 20c,d
  recovery of LV±dP/dt in latter stages of reperfusion: significant improvement
[2]; pre-ischemic baseline, aged WT vehicle vs HFI-419 treated
  HR, LVDP or LVEDP at baseline: no difference
